Tests used:
[1] = (§1) The drug is tested on Z-022 corresponding to mouse gut metagenome with ENA study accession number: PRJEB37062 and ENA sample accession number: ERS12561821 for biotransformation under anaerobic condition. The drug concentrations were measured over 9 timepoints collected between 0 and 24 hours of incubation by liquid-chromatography-coupled mass spectrometry (LC–MS); details: 2 µM
[2] = human gut metagenome, 24 h, 2 µM
[3] = as §1, with “Z-001” for “Z-022”, “ERS12561801” for “ERS12561821”; details: 2 µM
[4] = as §1, with “WLS-086” for “Z-022”, “human” for “mouse”, “ERS12561752” for “ERS12561821”; details: 2 µM
[5] = human gut metagenome, 24 h, 2 µM; remark: listed apart in the source
[6] = human gut metagenome, 24 h, 2 µM; remark: listed apart in the source
[7] = as §1, with “WLS-090” for “Z-022”, “human” for “mouse”, “ERS12561753” for “ERS12561821”; details: 2 µM
[8] = as §1, with “Z-026” for “Z-022”, “to” for “to mouse gut”, “ERS12561825” for “ERS12561821”; details: 2 µM
[9] = as §1, with “Z-004” for “Z-022”, “to” for “to mouse gut”, “ERS12561804” for “ERS12561821”; details: 2 µM
[10] = as §1, with “Z-009” for “Z-022”, “pig” for “mouse”, “ERS12561809” for “ERS12561821”; details: 2 µM
[11] = as §1, with “WLS-027” for “Z-022”, “human” for “mouse”, “ERS12561744” for “ERS12561821”; details: 2 µM
[12] = as §1, with “WLS-370” for “Z-022”, “human” for “mouse”, “ERS12561793” for “ERS12561821”; details: 2 µM
[13] = human gut metagenome, 24 h, 2 µM; remark: listed apart in the source
[14] = human gut metagenome, 24 h, 2 µM; remark: listed apart in the source
[15] = human gut metagenome, 24 h, 2 µM; remark: listed apart in the source
[16] = as §1, with “Z-029” for “Z-022”, “rat” for “mouse”, “ERS12561828” for “ERS12561821”; details: 2 µM
[17] = human gut metagenome, 24 h, 2 µM; remark: listed apart in the source
[18] = human gut metagenome, 24 h, 2 µM; remark: listed apart in the source
[19] = as §1, with “Z-024” for “Z-022”, “pig” for “mouse”, “ERS12561823” for “ERS12561821”; details: 2 µM
[20] = human gut metagenome, 24 h, 2 µM; remark: listed apart in the source
Note: call rule not given here.

Cc1ccc(S(=O)(=O)NC(=O)NN2CCCCCC2)cc1 [TOLAZAMIDE]
Bacterial Biotransformation [1]: Compound metabolized
Bacterial Biotransformation [2]: Compound metabolized
Bacterial Biotransformation [3]: Compound metabolized
Bacterial Biotransformation [4]: Compound metabolized
Bacterial Biotransformation [5]: Compound metabolized
Bacterial Biotransformation [6]: Compound metabolized
Bacterial Biotransformation [7]: Compound metabolized
Bacterial Biotransformation [8]: Compound NOT metabolized
Bacterial Biotransformation [9]: Compound metabolized
Bacterial Biotransformation [10]: Compound metabolized
Bacterial Biotransformation [11]: Compound metabolized
Bacterial Biotransformation [12]: Compound metabolized
Bacterial Biotransformation [13]: Compound metabolized
Bacterial Biotransformation [14]: Compound metabolized
Bacterial Biotransformation [15]: Compound metabolized
Bacterial Biotransformation [16]: Compound NOT metabolized
Bacterial Biotransformation [17]: Compound metabolized
Bacterial Biotransformation [18]: Compound metabolized
Bacterial Biotransformation [19]: Compound metabolized
Bacterial Biotransformation [20]: Compound metabolized

CCOC(=O)[C@H](CCc1ccccc1)N[C@@H](C)C(=O)N1[C@H](C(=O)O)C[C@H]2CCCC[C@@H]21 [TRANDOLAPRIL]
Bacterial Biotransformation [1]: Compound NOT metabolized
Bacterial Biotransformation [2]: Compound NOT metabolized
Bacterial Biotransformation [3]: Compound NOT metabolized
Bacterial Biotransformation [4]: Compound metabolized
Bacterial Biotransformation [5]: Compound metabolized
Bacterial Biotransformation [6]: Compound metabolized
Bacterial Biotransformation [7]: Compound metabolized
Bacterial Biotransformation [8]: Compound NOT metabolized
Bacterial Biotransformation [9]: Compound metabolized
Bacterial Biotransformation [10]: Compound metabolized
Bacterial Biotransformation [11]: Compound metabolized
Bacterial Biotransformation [12]: Compound NOT metabolized
Bacterial Biotransformation [13]: Compound metabolized
Bacterial Biotransformation [14]: Compound metabolized
Bacterial Biotransformation [15]: Compound metabolized
Bacterial Biotransformation [16]: Compound NOT metabolized
Bacterial Biotransformation [17]: Compound metabolized
Bacterial Biotransformation [18]: Compound metabolized
Bacterial Biotransformation [19]: Compound metabolized
Bacterial Biotransformation [20]: Compound metabolized

CC(CN(C)C)CN1c2ccccc2CCc2ccccc21.O=C(O)/C=C\C(=O)O (stereo not given) [TRIMIPRAMINE MALEATE]
Bacterial Biotransformation [1]: Compound NOT metabolized
Bacterial Biotransformation [2]: Compound metabolized
Bacterial Biotransformation [3]: Compound NOT metabolized
Bacterial Biotransformation [4]: Compound metabolized
Bacterial Biotransformation [5]: Compound metabolized
Bacterial Biotransformation [6]: Compound NOT metabolized
Bacterial Biotransformation [7]: Compound metabolized
Bacterial Biotransformation [8]: Compound metabolized
Bacterial Biotransformation [9]: Compound NOT metabolized
Bacterial Biotransformation [10]: Compound NOT metabolized
Bacterial Biotransformation [11]: Compound metabolized
Bacterial Biotransformation [12]: Compound NOT metabolized
Bacterial Biotransformation [13]: Compound metabolized
Bacterial Biotransformation [14]: Compound NOT metabolized
Bacterial Biotransformation [15]: Compound metabolized
Bacterial Biotransformation [16]: Compound NOT metabolized
Bacterial Biotransformation [17]: Compound metabolized
Bacterial Biotransformation [18]: Compound metabolized
Bacterial Biotransformation [19]: Compound metabolized
Bacterial Biotransformation [20]: Compound NOT metabolized

CC(=O)CC(c1ccccc1)c1c(O)c2ccccc2oc1=O (stereo not given) [WARFARIN]
Bacterial Biotransformation [1]: Compound metabolized
Bacterial Biotransformation [2]: Compound metabolized
Bacterial Biotransformation [3]: Compound NOT metabolized
Bacterial Biotransformation [4]: Compound metabolized
Bacterial Biotransformation [5]: Compound metabolized
Bacterial Biotransformation [6]: Compound metabolized
Bacterial Biotransformation [7]: Compound metabolized
Bacterial Biotransformation [8]: Compound NOT metabolized
Bacterial Biotransformation [9]: Compound metabolized
Bacterial Biotransformation [10]: Compound metabolized
Bacterial Biotransformation [11]: Compound metabolized
Bacterial Biotransformation [12]: Compound metabolized
Bacterial Biotransformation [13]: Compound metabolized
Bacterial Biotransformation [14]: Compound metabolized
Bacterial Biotransformation [15]: Compound metabolized
Bacterial Biotransformation [16]: Compound NOT metabolized
Bacterial Biotransformation [17]: Compound metabolized
Bacterial Biotransformation [18]: Compound metabolized
Bacterial Biotransformation [19]: Compound metabolized
Bacterial Biotransformation [20]: Compound metabolized

Cc1ccc(-c2nc3ccc(C)cn3c2CC(=O)N(C)C)cc1 [ZOLPIDEM]
Bacterial Biotransformation [1]: Compound metabolized
Bacterial Biotransformation [2]: Compound NOT metabolized
Bacterial Biotransformation [3]: Compound NOT metabolized
Bacterial Biotransformation [4]: Compound metabolized
Bacterial Biotransformation [5]: Compound metabolized
Bacterial Biotransformation [6]: Compound metabolized
Bacterial Biotransformation [7]: Compound metabolized
Bacterial Biotransformation [8]: Compound NOT metabolized
Bacterial Biotransformation [9]: Compound NOT metabolized
Bacterial Biotransformation [10]: Compound metabolized
Bacterial Biotransformation [11]: Compound NOT metabolized
Bacterial Biotransformation [12]: Compound NOT metabolized
Bacterial Biotransformation [13]: Compound metabolized
Bacterial Biotransformation [14]: Compound NOT metabolized
Bacterial Biotransformation [15]: Compound NOT metabolized
Bacterial Biotransformation [16]: Compound NOT metabolized
Bacterial Biotransformation [17]: Compound metabolized
Bacterial Biotransformation [18]: Compound metabolized
Bacterial Biotransformation [19]: Compound NOT metabolized
Bacterial Biotransformation [20]: Compound NOT metabolized

From ChEMBL document CHEMBL5724914, “Linking interpersonal differences in gut microbiota composition and drug biotransformation activity” (2024)
